The source made the active and inactive calls. No cut-off for these calls is given here. Residues, ends and D or L forms follow the SMILES beside them. *: point of attachment. Cbz = O=C(OCc1ccccc1)*
Assays:
[1] = target: T1, Estrogen receptor (Homo sapiens) (UniProt P03372); experiment: Induction of ERalpha degradation in ER-positive human MCF7 cells at 10 uM incubated for 12 hrs by Western blot analysis; format: cell-based
T1 sequence (whole entry): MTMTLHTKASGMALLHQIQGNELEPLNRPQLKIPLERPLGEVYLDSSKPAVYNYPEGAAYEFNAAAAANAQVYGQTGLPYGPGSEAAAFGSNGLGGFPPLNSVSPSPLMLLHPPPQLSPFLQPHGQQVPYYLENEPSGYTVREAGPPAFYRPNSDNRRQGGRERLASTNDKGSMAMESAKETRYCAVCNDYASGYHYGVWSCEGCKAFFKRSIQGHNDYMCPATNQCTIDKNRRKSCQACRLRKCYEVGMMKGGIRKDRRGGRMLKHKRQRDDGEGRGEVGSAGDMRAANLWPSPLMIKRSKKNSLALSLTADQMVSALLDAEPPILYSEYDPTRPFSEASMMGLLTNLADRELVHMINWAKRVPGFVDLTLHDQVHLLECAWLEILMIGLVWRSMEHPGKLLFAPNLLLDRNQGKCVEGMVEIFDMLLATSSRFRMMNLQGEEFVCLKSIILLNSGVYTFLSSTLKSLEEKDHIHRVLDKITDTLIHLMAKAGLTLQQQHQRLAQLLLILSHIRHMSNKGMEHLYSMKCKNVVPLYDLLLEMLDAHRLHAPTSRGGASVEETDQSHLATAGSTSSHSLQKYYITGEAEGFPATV

[2] = target: T2, Estrogen receptor beta (Homo sapiens, UniProt Q92731); experiment: Induction of ERbeta degradation in human NCI-H1975 cells at 10 uM incubated for 12 hrs by Western blot analysis; format: cell-based
T2 sequence (Q92731 whole entry): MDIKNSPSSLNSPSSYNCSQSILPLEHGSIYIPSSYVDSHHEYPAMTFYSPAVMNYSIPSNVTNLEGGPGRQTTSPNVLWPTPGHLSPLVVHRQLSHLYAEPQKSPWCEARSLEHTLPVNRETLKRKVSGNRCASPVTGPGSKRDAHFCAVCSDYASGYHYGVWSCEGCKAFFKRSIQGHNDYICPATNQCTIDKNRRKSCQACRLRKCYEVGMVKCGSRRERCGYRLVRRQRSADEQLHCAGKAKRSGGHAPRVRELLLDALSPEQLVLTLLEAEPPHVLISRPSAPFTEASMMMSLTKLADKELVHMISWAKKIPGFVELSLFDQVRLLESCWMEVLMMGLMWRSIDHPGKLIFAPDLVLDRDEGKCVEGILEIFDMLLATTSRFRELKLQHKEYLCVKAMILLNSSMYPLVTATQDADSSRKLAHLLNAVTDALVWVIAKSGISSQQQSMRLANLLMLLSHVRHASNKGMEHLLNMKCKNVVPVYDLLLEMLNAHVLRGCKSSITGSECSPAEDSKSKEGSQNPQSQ

[3] = target: T2, Estrogen receptor beta; experiment: Binding affinity to ERbeta (unknown origin) assessed as relative binding affinity incubated for 2 hrs by fluorescence polarization assay relative to estradiol
[4] = Selectivity ratio of relative binding affinity for ERalpha (unknown origin) to relative binding affinity to ERbeta (unknown origin)
[5] = Selectivity index, ratio of Ki for ERalpha (unknown origin) to Ki for ERbeta (unknown origin)
[6] = target: T3, von Hippel-Lindau disease tumor suppressor/Estrogen receptor (Homo sapiens) (UniProt P03372+P40337); experiment: PROTAC activity at VHL/wild type ERalpha in ER-positive human MCF7 cells assessed as induction of ERalpha degradation at 1 uM incubated for 12 hrs by Western blot analysis; format: cell-based
T3 sequence (P40337 whole entry, looked up, one chain of several): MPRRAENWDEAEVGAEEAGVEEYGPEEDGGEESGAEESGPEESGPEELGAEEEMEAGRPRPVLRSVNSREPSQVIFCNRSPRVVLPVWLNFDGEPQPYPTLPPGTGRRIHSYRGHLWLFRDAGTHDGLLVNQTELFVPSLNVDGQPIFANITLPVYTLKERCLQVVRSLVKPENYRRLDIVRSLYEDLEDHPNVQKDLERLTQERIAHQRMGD

[7] = target: T3, von Hippel-Lindau disease tumor suppressor/Estrogen receptor (Homo sapiens); experiment: PROTAC activity at VHL/wild type ERalpha in ER-positive human T47D cells assessed as induction of ERalpha degradation at 2 uM incubated for 12 hrs by Western blot analysis; format: cell-based
[8] = target: T3, von Hippel-Lindau disease tumor suppressor/Estrogen receptor (Homo sapiens); experiment: PROTAC activity at VHL/ERalpha in ER-positive human tamoxifen-resistant LCC2 cells assessed as induction of ERalpha degradation at 2 uM incubated for 12 hrs by Western blot analysis; format: cell-based; details: tamoxifen-resistant LCC2 cell
[9] = target: T3, von Hippel-Lindau disease tumor suppressor/Estrogen receptor (Homo sapiens); experiment: PROTAC activity at VHL/ERalpha in ER-positive human MCF7 cells assessed as induction of ERalpha degradation at 0.01 to 10 uM incubated for 12 hrs by Western blot analysis; format: cell-based; details: dose 0.01-10 µM
[10] = target: von Hippel-Lindau disease tumor suppressor/Estrogen receptor beta (Homo sapiens) (UniProt Q92731+P40337); experiment: PROTAC activity at VHL/ERbeta in human NCI-H1975 cells assessed as induction of ERbeta degradation at 1 to 10 uM incubated for 12 hrs by Western blot analysis; format: cell-based; details: dose 1-10 µM
von Hippel-Lindau disease tumor suppressor/Estrogen receptor beta (Homo sapiens), sequence (P40337 whole entry, looked up): as the sequence (P40337 whole entry, looked up, one chain of several) above
von Hippel-Lindau disease tumor suppressor/Estrogen receptor beta (Homo sapiens), sequence (Q92731 whole entry, looked up): as the sequence (Q92731 whole entry) above

[11] = test system: MCF7; experiment: Induction of apoptosis in human MCF7 cells at 1 to 10 uM incubated for 24 hrs by Annexin V-FITC/PI staining based analysis; format: functional, cell-based; details: dose 1-10 µM
[12] = test system: MCF7; experiment: Induction of cell cycle arrest in human MCF7 cells at 1 to 10 uM incubated for 24 hrs; format: functional, cell-based; details: dose 1-10 µM
[13] = test system: tamoxifen-resistant LCC2 cell; experiment: Antitumor activity against human ER-positive tamoxifen-resistant LCC2 cells xenografted in BALB/c nude mouse assessed as reduction in tumor growth at 5 micromol/kg, ip administered once every 2 days and measured every 2 days; format: functional, organism-based; details: dose 5.0 µmol/kg
[14] = test system: Mus musculus; experiment: In vivo protac activity at VHL/ERalpha in BALB/c nude mouse xenografted with human ER-positive tamoxifen-resistant LCC2 cells assessed as reduction in ERalpha protein levels in tumor at 5 micromol/kg, ip administered once every 2 days by Western blot analysis; format: functional, organism-based; details: dose 5.0 µmol/kg
[15] = test system: T47D; experiment: Inhibition of nascent GREB1 RNA synthesis in human T47D cells incubated for 6 hrs by 4-thiouridine incorporation assay; format: functional, cell-based
[16] = test system: T47D; experiment: Inhibition of nascent IGFBP4 RNA synthesis in human T47D cells incubated for 6 hrs by 4-thiouridine incorporation assay; format: functional, cell-based
[17] = target: T1, Estrogen receptor (Homo sapiens); experiment: Inhibition of ERalpha binding to DNA in human T47D cells assessed as reduction in protein occupancy incubated for 6 hrs by ChIP-seq analysis; format: cell-based
[18] = test system: T47D; experiment: Inhibition of gene transcription in human T47D cells assessed as reduction in Pol II occupancy at GREB1 promoter region by ChIP-seq analysis; format: functional, cell-based
[19] = test system: T47D; experiment: Inhibition of gene transcription in human T47D cells assessed as reduction in Pol II occupancy at IGFBP4 promoter region by ChIP-seq analysis; format: functional, cell-based
[20] = test system: T47D; experiment: Inhibition of gene transcription in human T47D cells assessed as reduction in H3K27ac levels in GREB1 promoter region by ChIP-seq analysis; format: functional, cell-based
[21] = test system: T47D; experiment: Inhibition of gene transcription in human T47D cells assessed as reduction in H3K27ac levels in IGFBP4 promoter region by ChIP-seq analysis; format: functional, cell-based
[22] = target: T4, Estrogen receptor (Homo sapiens, UniProt P03372)
T4 sequence (P03372 whole entry): T1 sequence (whole entry)

[23] = target: T2, Estrogen receptor beta
[24] = test system: MCF7; experiment: cells; details: Homo sapiens, MCF7, 72 h
[25] = cells; details: Homo sapiens, Tamoxifen-resistant LCC2 cell, 72 h
[26] = test system: T47D; experiment: cells; details: Homo sapiens, 72 h
[27] = test system: T47D; experiment: cells; details: Homo sapiens, 72 h; remark: listed apart in the source
[28] = test system: T47D; experiment: cells; details: Homo sapiens, 72 h; remark: listed apart in the source
[29] = test system: MDA-MB-231; experiment: cells; details: Homo sapiens, MDA-MB-231, 72 h
[30] = in vitro; details: human, MCF-10A cells
[31] = target: T1, Estrogen receptor (Homo sapiens); experiment: Induction of ERalpha degradation in ER-positive human MCF7 cells at 5 uM incubated for 12 hrs by Western blot analysis; format: cell-based
[32] = target: T1, Estrogen receptor (Homo sapiens); experiment: Induction of ERalpha degradation in ER-positive human MCF7 cells at 1 uM incubated for 12 hrs by Western blot analysis; format: cell-based
[33] = target: T1, Estrogen receptor (Homo sapiens); experiment: Induction of ERalpha degradation in ER-positive human MCF7 cells at 1 uM incubated for 12 hrs in presence of (2S,4R)-1-[(2S)-2-amino-3,3-dimethylbutanoyl]-4-hydroxy-N-[(1S)-1-[4-(4-methyl-1,3-thiazol-5-yl)phenyl]ethyl]pyrrolidine-2-carboxamide by Western blot analysis; format: cell-based
[34] = target: T1, Estrogen receptor (Homo sapiens); experiment: Induction of ERalpha degradation in ER-positive human MCF7 cells at 1 to 10 uM incubated for 12 hrs by Western blot analysis; format: cell-based; details: dose 1-10 µM
[35] = target: T2, Estrogen receptor beta; experiment: Induction of ERbeta degradation in human NCI-H1975 cells at 1 to 10 uM incubated for 12 hrs by Western blot analysis; format: cell-based; details: dose 1-10 µM
[36] = test system: MCF7; experiment: Antitumor activity against human tamoxifen-sensitive MCF7 cells xenografted in BALB/c nude mouse assessed as inhibition of tumor growth at 5 micromol/kg, ip administered once every 2 days and measured every 2 days; format: functional, organism-based; details: dose 5.0 µmol/kg
[37] = test system: Mus musculus; experiment: In vivo protac activity at VHL/ERalpha in BALB/c nude mouse xenografted with human tamoxifen-sensitive MCF7 cells assessed as reduction in ERalpha protein levels in tumor at 5 micromol/kg, ip administered once every 2 days by Western blot analysis; format: functional, organism-based; details: dose 5.0 µmol/kg
[38] = test system: MCF7; experiment: Antitumor activity against human tamoxifen-sensitive MCF7 cells xenografted in BALB/c nude mouse assessed as increase in tumor necrosis area at 5 micromol/kg, ip administered once every 2 days by […] staining based analysis; format: functional, organism-based; details: dose 5.0 µmol/kg
[39] = test system: MCF7; experiment: Antitumor activity against human tamoxifen-sensitive MCF7 cells xenografted in BALB/c nude mouse assessed as reduction in cell proliferation at 5 micromol/kg, ip administered once every 2 days by ki67 staining based analysis; format: functional, organism-based; details: dose 5.0 µmol/kg
[40] = target: T1, Estrogen receptor (Homo sapiens); experiment: Induction of ERalpha degradation in ER-positive human MCF7 cells at 1 uM incubated for 12 hrs in presence of N-ethyl-5,6-bis(4-hydroxyphenyl)-N-(4-methoxyphenyl)-7-oxabicyclo[2.2.1]hept-5-ene-2-sulfonamide by Western blot analysis; format: cell-based

Structure (SMILES) | RBA [3] [%] | Selectivity ratio [4] | Ratio Ki [5] | inhibition [15] | inhibition [16] | inhibition [17] | inhibition [18] | inhibition [19] | inhibition [20] | inhibition [21] | Ki [22] [µM] | Ki [23] [µM] | IC50 [24] [µM] | IC50 [25] [µM] | IC50 [26] [µM] | IC50 [27] [µM] | IC50 [28] [µM] | IC50 [29] [µM] | Activity [32] | also measured
COc1ccc(N(CC(F)(F)F)S(=O)(=O)C2CC3OC2C(c2ccc(O)cc2)=C3c2ccc(O)cc2)cc1 (centres undefined) |  |  |  |  |  |  |  |  |  |  |  |  |  |  |  |  |  |  |  | Activity [1]: Active; Activity [2]: Active
Cc1ncsc1-c1ccc([C@H](C)NC(=O)[C@@H]2C[C@@H](O)CN2C(=O)[C@@H](NC(=O)CCCCCOc2ccc(N(CC(F)(F)F)S(=O)(=O)C3CC4OC3C(c3ccc(O)cc3)=C4c3ccc(O)cc3)cc2)C(C)(C)C)cc1 (some centres undefined) | 0.03 | 1.33 | 5.16 | Active | Active | Active | Active | Active | Active | Active | 5.08 | 26.2 | 0.05 | 4.17 | 1.35 | 1.26 | 1.51 | > 100 |  | Activity [6]: Active; Activity [7]: Active; Activity [8]: Active; Activity [9]: Active; Activity [10]: inactive; Activity [11]: Active; Activity [12]: Active; Activity [13]: Active; Activity [14]: Active; IC50 at 72 h [30]: 7.69 µM
CC(C)C[C@@H](C=O)NC(=O)[C@H](CC(C)C)NC(=O)[C@H](CC(C)C)NC(=O)OCc1ccccc1 (Cbz-Leu-Leu-Leu-aldehyde) |  |  |  |  |  |  |  |  |  |  |  |  |  |  |  |  |  |  |  | Activity [31]: inactive
CCN(c1ccc(OC)cc1)S(=O)(=O)C1CC2OC1C(c1ccc(O)cc1)=C2c1ccc(O)cc1 (centres undefined) | 0.31 | 3.39 | 13.1 |  |  |  |  |  |  |  | 0.19 | 2.54 |  |  |  |  |  |  | inactive | Activity [33]: inactive; Activity [34]: inactive; Activity [35]: inactive
C[C@]12CC[C@@H]3c4ccc(O)cc4C[C@@H](CCCCCCCCC[S+]([O-])CCCC(F)(F)C(F)(F)F)[C@H]3[C@@H]1CC[C@@H]2O (some centres undefined) [FULVESTRANT] |  |  |  | Active | Active | Active | Active | Active | Active | Active |  |  | 0.33 | 11.8 | 1.76 | 3.92 | 2.21 | > 100 |  | inhibition [36]: Active; Activity [37]: Active; Activity [38]: Active; Activity [39]: Active
Cc1ncsc1-c1ccc([C@H](C)NC(=O)[C@@H]2C[C@@H](O)CN2C(=O)[C@@H](N)C(C)(C)C)cc1 |  |  |  |  |  |  |  |  |  |  |  |  |  |  |  |  |  |  | inactive | Activity [40]: inactive

— ChEMBL document CHEMBL5338775, “Discovery of a Novel Class of PROTACs as Potent and Selective Estrogen Receptor α Degraders to Overcome Endocrine-Resistant Breast Cancer In Vitro and In Vivo” (J Med Chem, 2023)
